# Reference: PMC2648833 (Biochemistry, 2008)
# Tests used:
# Assay in all cases: […] release, TLC
# Assay type in all cases: biochemical
# Conditions in all cases: labelled compound; 1 mM ATP, 2 mM MgCl2, salmon sperm DNA, Tris-HCl pH 8.0, 37 °C
# [1] = target: UvrD2 (MsmUvrD2), full-length (Mycolicibacterium smegmatis, UniProt A0QTT0, C614A/C617A)
# [2] = target: UvrD2-(1-630) (ΔHRDC) (Mycolicibacterium smegmatis, UniProt A0QTT0)
# [3] = target: UvrD2 (MsmUvrD2), full-length (Mycolicibacterium smegmatis, UniProt A0QTT0)
compound,measurement,setting,value
Nc1ncnc2c1ncn2[C@@H]1O[C@H](COP(=O)(O)OP(=O)(O)OP(=O)(O)O)[C@@H](O)[C@H]1O [ATP],"32Pi release, TLC",[1],The paired cysteine mutations had no deleterious effect on DNA-dependent ATPase specific activity
same,"32Pi release, TLC",[2],The two proteins displayed virtually identical specific activity for ATP hydrolysis
same,"32Pi release, TLC",[3],The two proteins displayed virtually identical specific activity for ATP hydrolysis
